The record followed here is ChEMBL document CHEMBL2396621, “Design, synthesis and biological evaluation of 2-mercapto-3-phenethylquinazoline bearing anilide fragments as potential antitumor agents: molecular docking study” (2013).

Some results are limits rather than exact numbers.

Holding throughout (format): functional
One assay relates to NCI-H322M. In words: Cytotoxicity against human NCI-H322M cells assessed as growth inhibition at 10 uM after 48 hrs by coulter counter analysis. The settings on record: read-out: GI.
The next assay deals with A549. In words: Cytotoxicity against human A549 cells assessed as growth inhibition at 10 uM after 48 hrs by coulter counter analysis. To be noted: A549, 48 h, read-out: GI.
The subject of a further assay is HL-60(TB). In words: Cytotoxicity against human HL-60(TB) cells assessed as growth inhibition at 10 uM after 48 hrs by coulter counter analysis. The settings on record: HL-60, 48 h, read-out: GI.
A further assay deals with MOLT-4. In words: Cytotoxicity against human MOLT4 cells assessed as growth inhibition at 10 uM after 48 hrs by coulter counter analysis. The settings on record: MOLT-4, 48 h, read-out: GI.
In another assay the test system is MDA-MB-468. As to the kind of experiment: Cytotoxicity against human MDA-MB-468 cells assessed as growth inhibition at 10 uM after 48 hrs by coulter counter analysis. The settings on record: MDA-MB-468, 48 h, read-out: GI.
A further assay has as its system T47D. As to the kind of experiment: Cytotoxicity against human T47D cells assessed as growth inhibition at 10 uM after 48 hrs by coulter counter analysis. To be noted: read-out: GI.
In the next assay the test system is BT-549. In words: Cytotoxicity against human BT549 cells assessed as growth inhibition at 10 uM after 48 hrs by coulter counter analysis. To be noted: BT-549, 48 h, read-out: GI.
Another assay deals with MCF7. As to the kind of experiment: Cytotoxicity against human MCF7 cells assessed as growth inhibition at 10 uM after 48 hrs by coulter counter analysis. To be noted: MCF7, 48 h, read-out: GI.
The test system of a further assay is SN12C. In words: Cytotoxicity against human SN12C cells assessed as growth inhibition at 10 uM after 48 hrs by coulter counter analysis. To be noted: read-out: GI.
A further assay has as its system OVCAR-8. In words: Cytotoxicity against human OVCAR8 cells assessed as growth inhibition at 10 uM after 48 hrs by coulter counter analysis. To be noted: OVCAR-8, 48 h, read-out: GI.
The subject of a further assay is OVCAR-3. In words: Cytotoxicity against human OVCAR3 cells assessed as growth inhibition at 10 uM after 48 hrs by coulter counter analysis. The settings on record: OVCAR-3, 48 h, read-out: GI.
A further assay relates to SK-MEL-5. As to the kind of experiment: Cytotoxicity against human SK-MEL-5 cells assessed as growth inhibition at 10 uM after 48 hrs by coulter counter analysis. The settings on record: SK-MEL-5, 48 h, read-out: GI.
The next assay has as its system SK-MEL-28. As to the kind of experiment: Cytotoxicity against human SK-MEL-28 cells assessed as growth inhibition at 10 uM after 48 hrs by coulter counter analysis. To be noted: SK-MEL-28, 48 h, read-out: GI.
For a further assay, the system named is SNB-75. As to the kind of experiment: Cytotoxicity against human SNB75 cells assessed as growth inhibition at 10 uM after 48 hrs by coulter counter analysis. The settings on record: SNB-75, 48 h, read-out: GI.
The subject of a further assay is SNB-19. As to the kind of experiment: Cytotoxicity against human SNB19 cells assessed as growth inhibition at 10 uM after 48 hrs by coulter counter analysis. The settings on record: SNB-19, 48 h, read-out: GI.
The next assay has as its system SF-268. In words: Cytotoxicity against human SF268 cells assessed as growth inhibition at 10 uM after 48 hrs by coulter counter analysis. To be noted: SF-268, 48 h, read-out: GI.
The test system of a further assay is HCT-116. As to the kind of experiment: Cytotoxicity against human HCT116 cells assessed as growth inhibition at 10 uM after 48 hrs by coulter counter analysis. The settings on record: HCT-116, 48 h, read-out: GI.
Assay [1] in a line: Cytotoxicity against human leukemia cells after 48 hrs by coulter counter analysis. To be noted: Leukemia cell.
Assay [2] in a line: Cytotoxicity against human breast cancer cells after 48 hrs by coulter counter analysis. The settings on record: Cancer cell lines.
Assay [3] is described as follows: Cytotoxicity against human renal cancer cells after 48 hrs by coulter counter analysis. To be noted: Cancer cell lines.
Assay [4] is described as follows: Cytotoxicity against human prostate cancer cells after 48 hrs by coulter counter analysis. The settings on record: Cancer cell lines.
Assay [5] in a line: Cytotoxicity against human ovarian cancer cells after 48 hrs by coulter counter analysis. To be noted: Cancer cell lines.
Assay [6] can be described thus: Cytotoxicity against human melanoma cells after 48 hrs by coulter counter analysis. To be noted: Melanoma cell.
Assay [7] can be described thus: Cytotoxicity against human CNS cancer cells after 48 hrs by coulter counter analysis. To be noted: Cancer cell lines.
Assay [8] can be described thus: Cytotoxicity against human colon cancer cells after 48 hrs by coulter counter analysis. The settings on record: Cancer cell lines.
Assay [9] can be described thus: Cytotoxicity against human non-small cell lung cancer cells after 48 hrs by coulter counter analysis. To be noted: Cancer cell lines.
Where [10] appears, read: read-out: LC50 (the source's name).

For the molecule `O=C(CSc1nc2ccccc2c(=O)n1CCc1ccccc1)Oc1ccccc1`, the inhibition of growth at 10 µM in the assay on NCI-H322M was 25%; in the assay on A549 it was 12%; in the assay on HL-60(TB) it was 11%; in the assay on MOLT-4, 23%; in the assay with MDA-MB-468 it was under 10%; in the assay with T47D, 14%. The inhibition of growth at 10 µM was under 10% in the assay with BT-549; 15% with MCF7; 16% in the assay on SN12C; 23% with OVCAR-8; under 10% in the assay with OVCAR-3; under 10% in the assay on SK-MEL-5. The inhibition of growth at 10 µM with SK-MEL-28 was under 10%; in the assay with SNB-75, 28%; in the assay on SNB-19, under 10%; in the assay with SF-268 it was 16%; in the assay on HCT-116 it was 21%.
`COc1cc(NC(=O)CSc2nc3ccccc3c(=O)n2CCc2ccccc2)cc(OC)c1OC`: the inhibition of growth at 10 µM in the assay on NCI-H322M was 73%; in the assay with A549 it was 76%; with MDA-MB-468 it was 71%; with T47D it was over 100%; in the assay with BT-549 it was over 100%; in the assay on MCF7, 49%. For the same molecule, the inhibition of growth at 10 µM is 75% in the assay on SN12C; 70% in the assay with OVCAR-8; over 100% with OVCAR-3; over 100% with SK-MEL-5; 63% in the assay with SK-MEL-28; over 100% with SNB-75. Besides, the results for the inhibition of growth at 10 µM in the assay with SNB-19, in the assay on SF-268 and with HCT-116 were 73%, 87% and over 100%, respectively. The 50% growth inhibitory concentration (GI50) is over 100 µM in assay [1]; 2.77 µM in [2]; 1.77 µM in assay [3]; 4.98 µM in assay [4]; 2.55 µM in assay [5]; 3.3 µM in assay [6]. The results for the GI50 in assay [7], in assay [8] and in assay [9] were 2.73 µM, 2.02 µM and 2.04 µM, respectively. The total growth inhibition concentration (TGI) is over 100 µM in assay [1]; 44.1 µM in assay [2]; 3.63 µM in assay [3]; over 100 µM in assay [4]; 52 µM in assay [5]; 76.6 µM in [6]. In addition, the figures for the TGI in [7], in [8] and in [9] were 13.5 µM, over 100 µM and 43.1 µM, respectively. In addition, the CC50 is over 100 µM in [4] (setting [10]), 75 µM in assay [7] (setting [10]), over 100 µM in assay [8] (setting [10]) and over 100 µM in assay [9] (setting [10]).
Regarding `Cc1ccc(NC(=O)CSc2nc3ccccc3c(=O)n2CCc2ccccc2)cc1`, the inhibition of growth at 10 µM is 15% in the assay on NCI-H322M; 21% in the assay with A549; under 10% in the assay on HL-60(TB); under 10% in the assay on MOLT-4; 29% in the assay on MDA-MB-468; 44% in the assay with T47D. Besides, the inhibition of growth at 10 µM is under 10% with BT-549; 23% with MCF7; under 10% with SN12C; 27% in the assay with OVCAR-8; under 10% in the assay on OVCAR-3; 22% in the assay with SK-MEL-5. Also, the inhibition of growth at 10 µM stood at 22% in the assay on SK-MEL-28; 12% in the assay on SNB-75; 22% in the assay with SNB-19; 19% in the assay with SF-268; 13% in the assay with HCT-116.
Take `O=C(CSc1nc2ccccc2c(=O)n1CCc1ccccc1)Nc1ccc(F)cc1`: the inhibition of growth at 10 µM came out at 17% in the assay with NCI-H322M; 23% with A549; 25% in the assay with HL-60(TB); 26% with MOLT-4; 23% with MDA-MB-468; 25% in the assay with T47D. The inhibition of growth at 10 µM with BT-549 is 10%; with MCF7 it was 18%; with SN12C, 19%; in the assay with OVCAR-8, under 10%; in the assay with OVCAR-3, under 10%; in the assay with SK-MEL-5, 16%. The inhibition of growth at 10 µM was under 10% in the assay with SK-MEL-28; under 10% in the assay on SNB-75; under 10% in the assay with SNB-19; under 10% in the assay with SF-268; 19% in the assay on HCT-116.
Regarding `O=C(CSc1nc2ccccc2c(=O)n1CCc1ccccc1)Nc1ccccc1`, the inhibition of growth at 10 µM in the assay with NCI-H322M was under 10%; with A549, 16%; in the assay on HL-60(TB), 17%; in the assay on MOLT-4, under 10%; in the assay with MDA-MB-468, 18%; in the assay on T47D it was 13%. For the same molecule, the inhibition of growth at 10 µM is under 10% in the assay on BT-549; 19% in the assay with MCF7; under 10% in the assay with SN12C; under 10% in the assay on OVCAR-8; under 10% in the assay on OVCAR-3; 13% with SK-MEL-5. Also, the inhibition of growth at 10 µM in the assay on SK-MEL-28 was under 10%; with SNB-75 it was 12%; in the assay on SNB-19, under 10%; in the assay with SF-268 it was under 10%; in the assay with HCT-116, 15%.
As for `COc1cc(NC(=O)CCSc2nc3ccccc3c(=O)n2CCc2ccccc2)cc(OC)c1OC`, the inhibition of growth at 10 µM in the assay with NCI-H322M was found to be 28%; with A549 it was 29%; with HL-60(TB), 27%; with MOLT-4, 40%; in the assay on MDA-MB-468, 27%; in the assay with T47D, 47%. In addition, the inhibition of growth at 10 µM in the assay with BT-549 came to 13%; in the assay with MCF7, 33%; in the assay with SN12C, 16%; in the assay on OVCAR-8 it was 28%; in the assay with OVCAR-3, 11%; in the assay on SK-MEL-5, 31%. The inhibition of growth at 10 µM turned out to be 42% with SK-MEL-28; 38% with SNB-75; 12% in the assay with SNB-19; 26% in the assay on SF-268; 40% with HCT-116.

By GI50 is commonly meant the concentration that inhibits growth by half. A higher GI50 goes with lower sensitivity of the cells. The TGI is the concentration giving total growth inhibition. Read a high TGI as less potent growth arrest.
